Values quoted from earlier work as cited in article PMC6318274, “Lattice engineering enables definition of molecular features allowing for potent small-molecule inhibition of HIV-1 entry” (Nature Communications, 2019).
Read-outs that look alike come from different tables or passages of the source.

Tested on: HIV-1 Env-pseudoviruses (208-strain panel)
Conditions: cited from earlier work; for IC50: read-out: IC50; for % Neutralized / Total Neutralized: 208 viruses

## COc1cnc(-n2cnc(C)n2)c2[nH]cc(C(=O)C(=O)N3CCN(C(=O)c4ccccc4)CC3)c12 [BMS-626529]
CNE20, clade BC
  IC50: 339 nM
CNE21, clade BC
  IC50: 2 nM
CNE30, clade C
  IC50: 1 nM
CNE31, clade C
  IC50: 23 nM
CNE40, clade BC
  IC50: 38 nM
CNE53, clade C
  IC50: 0.5 nM
CNE55, clade AE
  IC50: 4770 nM
CNE56, clade AE
  IC50: > 20000 nM
CNE57, clade B
  IC50: 2 nM
CNE58, clade C
  IC50: 4 nM
CNE59, clade AE
  IC50: > 20000 nM
Ce1176.A3, clade C
  IC50: 10 nM
DJ263.8, clade AG
  IC50: 11 nM
DU123.06, clade C
  IC50: 5 nM
DU151.02, clade C
  IC50: 6 nM
DU156.12, clade C
  IC50: 3 nM
DU172.17, clade C
  IC50: 8 nM
DU422.01, clade C
  IC50: 8 nM
HO86.8, clade B
  IC50: 20 nM
HT593.1, clade B
  IC50: 0.9 nM
HXB2.DG, clade B
  IC50: 1 nM
IC50 <0.01ug/ml
  % Neutralized: 46%
  Total Neutralized: 95
IC50 <0.1ug/ml
  % Neutralized: 71%
  Total Neutralized: 147
IC50 <1.0ug/ml
  % Neutralized: 80%
  Total Neutralized: 167
IC50 <10ug/ml
  % Neutralized: 89%
  Total Neutralized: 185
IC50 <50ug/ml
  % Neutralized: 91%
  Total Neutralized: 189
JRCSF.JB, clade B
  IC50: 0.3 nM
JRFL.JB, clade B
  IC50: 0.4 nM
KER2008.12, clade A
  IC50: 1870 nM
KER2018.11, clade A
  IC50: 8 nM
KNH1209.18, clade A
  IC50: 29 nM
M02138, clade AE
  IC50: 2810 nM
MB201.A1, clade A
  IC50: 628 nM
MB539.2B7, clade A
  IC50: 191 nM
MI369.A5, clade A
  IC50: 13 nM
MN.3, clade B
  IC50: 10 nM
MS208.A1, clade A
  IC50: 11 nM
MW965.26, clade C
  IC50: 433 nM
NKU3006.ec1, clade D
  IC50: 5 nM
P0402.c2.11, clade G
  IC50: 32 nM
P1981.C5.3, clade G
  IC50: 209 nM
PVO.04, clade B
  IC50: 3 nM
Q23.17, clade A
  IC50: 12 nM
Q168.a2, clade AD
  IC50: 115 nM
Q259.17, clade A
  IC50: 1230 nM
Q461.e2, clade AD
  IC50: 12 nM
Q769.d22, clade A
  IC50: 123 nM
Q769.h5, clade A
  IC50: 427 nM
Q842.d12, clade A
  IC50: 17 nM
QH209.14M.A2, clade A
  IC50: 610 nM
QH0515.01, clade B
  IC50: 12 nM
QH0692.42, clade B
  IC50: 9 nM
R1166.c1, clade AE
  IC50: > 20000 nM
R2184.c4, clade AE
  IC50: > 20000 nM
R3265.c6, clade AE
  IC50: 13000 nM
REJO.67, clade B
  IC50: 1040 nM
RHPA.7, clade B
  IC50: 4 nM
RW020.2, clade A
  IC50: 71 nM
SC422.8, clade B
  IC50: 2 nM
SF162.LS, clade B
  IC50: 1 nM
SO18.18, clade C
  IC50: 3 nM
SS1196.01, clade B
  IC50: 7050 nM
T33-7, clade AG
  IC50: 2810 nM
T250-4, clade AG
  IC50: 15 nM
T251-18, clade AG
  IC50: 19 nM
T253-11, clade AG
  IC50: 1 nM
T255-34, clade AG
  IC50: 82 nM
T257-31, clade AG
  IC50: 57 nM
T266-60, clade AG
  IC50: 1370 nM
T278-50, clade AG
  IC50: 0.2 nM
T280-5, clade AG
  IC50: 10 nM
TH023.6, clade AE
  IC50: > 20000 nM
TH966.8, clade AE
  IC50: > 20000 nM
TH976.17, clade AE
  IC50: > 20000 nM
THRO.18, clade B
  IC50: 3 nM
TRJO.58, clade B
  IC50: 1 nM
TRO.11, clade B
  IC50: 1080 nM
TV1.29, clade C
  IC50: 67 nM
TZA125.17, clade C
  IC50: 14 nM
TZBD.02, clade C
  IC50: 5 nM
UG021.16, clade D
  IC50: 13 nM
UG024.2, clade D
  IC50: 566 nM
UG037.8, clade A
  IC50: 1010 nM
WITO.33, clade B
  IC50: 5 nM
X1254.c3, clade G
  IC50: 43 nM
X1632.S2.B10, clade G
  IC50: 54 nM
X2088.c9, clade G
  IC50: 3 nM
X2131.C1.B5, clade G
  IC50: 267 nM
X2278.C2.B6, clade B
  IC50: 1260 nM
YU2.DG, clade B
  IC50: 0.9 nM
ZA012.29, clade C
  IC50: 7 nM
ZM53.12, clade C
  IC50: 10 nM
ZM55.28a, clade C
  IC50: 6 nM
ZM106.9, clade C
  IC50: 17 nM
ZM109.4, clade C
  IC50: 1 nM
ZM135.10a, clade C
  IC50: 889 nM
ZM176.66, clade C
  IC50: 18 nM
ZM197.7, clade C
  IC50: 6 nM
ZM214.15, clade C
  IC50: 2 nM
ZM215.8, clade C
  IC50: 2 nM
ZM233.6, clade C
  IC50: 0.8 nM
ZM249.1, clade C
  IC50: 18 nM
[…], clade C
  IC50: 2 nM
[…], clade G
  IC50: 120 nM
